These results are taken from US20140243239A1, “MULTIPLEXED KINASE INHIBITOR BEADS AND USES THEREOF” (University of North Carolina at Chapel Hill, priority 2011, published 2014).

In assay [1] the test system is SUM159-R cells. The assay is described as follows: Growth of AZD6244-resistant SUM159-R cells. It counts as cell-based, human. The settings on record: 25 μM AZD6244. How it is done:
Cell Culture: MDA-MB-231 cells were grown in DMEM/F12 supplemented with 10% FBS. SUM-159 cells were grown in DMEM/F12 supplemented with 10% FBS 1 μg/mL hydrocortisone, and 5 μg/mL insulin. SUM159-R cells were continually grown in the presence of 5 μM AZD6244. For SILAC labeling, cells were grown for five doublings in arginine- and lysine-depleted media (as above) supplemented with either unlabeled L-arginine (42 mg/L) and L-lysine (71 mg/L) or equimolar amounts of heavy isotope labeled [13C6,15N4]arginine (Arg10) and [13C6]lysine (Lys6) (Cambridge Isotope Laboratories). Proliferation was quantified using Cell-Titer Glo Luminescent Cell Viability Assay (Promega). Fresh media containing DMSO or kinase inhibitors was added daily and experiments were performed in triplicate.
Generation of AZD6244 resistant SUM159 cells: SUM159 cells were cultured in DMEM/F12 supplemented with 10% FBS media containing 5 μM AZD6244. Media was changed every 2 days, maintaining inhibitor concentrations of 5 μM AZD6244.

Assay [2] deals with C3Tag tumors. The assay is described as follows: In vivo tumorigenesis experiment, C3Tag TNBC GEMM (tumor volume). The settings on record: 21 days, AZD6244 20 mg/kg, sorafenib 30 mg/kg in diet. Further details: species or system mouse. How it is done:
In vivo tumorigenesis experiments: Animal handling and procedures were approved by the University of North Carolina at Chapel Hill Institutional Animal Care and Use Committee and followed the NIH guidelines. Male C3Tag mice were bred with wild type females to produce experimental offspring. Mice were examined for tumors weekly until a palpable mass was found. Treatment began the same day. Tumor size was assessed twice weekly by caliper measurements of tumor areas ((width)2×length))/2 for 21 days. Percent change of tumor volume was calculated using (Final volume−Initial Volume)/Initial Volume and graphed using R (http://www.r-project.org/). Drugs were incorporated into the diet of mice to achieve a daily dose of AZD6244 20 mg/kg and sorafenib 30 mg/kg. Food was provided ab libitum and the amount of daily food intake was pre-determined using Jackson Labs Phenome Database. Tumors at harvest were cut in half and either snap-frozen in liquid nitrogen and stored at −80° C. or placed in neutral buffered 10% formalin solution.

The subject of assay [3] is c-Myc. The assay can be described thus: c-Myc protein and RNA levels in SUM159 cells (western blot, qRT-PCR). It counts as cell-based, human. The settings on record: 5 μM AZD6244. As for the experimental part: Western blotting and RTK arrays: Western blotting and RTK array analysis were performed as previously described (Amin et al., 2010). Amin et al. 2010 Sci Transl Med 2, 16ra17. Detailed methods and antibodies are provided in Supplemental Experimental Procedures.
qRT-PCR: Total RNA was isolated from human breast cancer cell lines or murine tumors using the RNeasy® Plus Mini Kit (Qiagen). Real-time RT-PCR was performed on diluted cDNA using the Applied Biosystems 7500 Fast Real-Time PCR System (standard program) and inventoried TaqMan® Gene Expression Assays. Each cDNA sample was assayed in triplicate. Fold change with respect to the calibrator represents the average of the triplicate values, with error bars representing the range of the mean (95% confidence).
Western blotting: Proteins from cell lysates were separated by SDS-PAGE chromatography, transferred to nitrocellulose membranes, and probed with the indicated primary antibodies. Antibodies recognizing pAKT (S473), pAKT (T308), AURA, pAXL (Y702), AXL, c-Myc, DDR1, EGFR, pERK1/2 (T202/Y204), pHER3 (Y1197), MAX, pMEK1/2 (S217/S221), MEK1/2, MKP3, pP70S6K (T389), pPDGFRβ (Y751), pPDGFRβ (Y1009), pPDGFR (Y857), PDGFRβ, pRAF (S338), pRSK1 (T359/S363), pVEGFR2 (Y1175), VEGFR2 were obtained from Cell Signaling Technology. Antibodies for Cyclin A2, Cyclin B1, Cyclin D1, ERK2, RAF, and pRAF (S259) were obtained from Santa Cruz Biotechnology. The antibody recognizing Bim was obtained from Chemicon. The antibody recognizing p-c-Myc (S62) was obtained from Abeam. Secondary HRP-anti-rabbit and HRP-anti-goat secondary antibodies were from Jackson Immunoresearch Laboratories and Santa Cruz Biotechnology, respectively. Western blots were visualized by incubation with SuperSignal West Pico Chemiluminescent Substrate (Thermo Scientific).
Background: Immunoblotting shows a protein as a band on a membrane.

`Cn1cnc2c(F)c(Nc3ccc(Br)cc3Cl)c(C(=O)NOCCO)cc21` [AZD6244]: the “growth of SUM159-R cells” value in assay [1] is recorded as “growth arrested”. Moreover, the “mice with tumor regression” value in assay [2] is 30%. The “c-Myc protein and mRNA” value in assay [3] was “rapid loss of c-Myc protein and c-Myc mRNA”.
